Reference: patent US20250228239A1, “MOLECULES HAVING PESTICIDAL UTILITY, AND INTERMEDIATES, COMPOSITIONS, AND PROCESSES, RELATED THERETO” (priority 2024, published 2025)
Like-named read-outs stand apart in the source and are kept apart here.

What was measured:
Format in all cases: in vivo
[1] = test system: Cabbage Looper (Trichoplusia ni, TRIPNI); experiment: Bioassays on Cabbage Looper (CL), 128-well diet tray assay; details: Trichoplusia ni
Procedure, shortened: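 Percent mortality, averaged across eight replicate wells, after second-instar larvae (1–5 per well) fed for five to seven days on diet dosed at 50 μg/cm^2. Compound was applied in acetone-water 90:10 and dried; trays kept vented at 25° C under 14:10 photoperiod.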

[2] = test system: Yellow Fever Mosquito (Aedes aegypti, AEDSAE); details: for YFM rating: Table ABC / ABC-DP rating
Procedure, shortened: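 Compounds from 4000 ppm DMSO stocks were diluted in 90:10 water/acetone and dispensed into wells, then infested with about 1-day-old larvae in liver-powder water. Covered plates were held at room temperature for 3 days and each well was scored for mortality against a rating scale; six replicate plates per compound.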

[3] = test system: Beet Armyworm (Spodoptera exigua, LAPHEG); experiment: Bioassays on Beet Armyworm (BAW), 128-well diet tray assay; details: Spodoptera exigua
Procedure, shortened: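 Mortality of second-instar larvae (1–5/well) on artificial diet treated with 50 μg/cm^2 compound, read after 5–7 days at 25° C.; values are means of eight wells.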

[4] = Cabbage Looper, Table ABC / ABC-DP rating, read-out: CL rating
[5] = Beet Armyworm, Table ABC / ABC-DP rating, read-out: BAW rating
[6] = Cabbage Looper, rating class, read-out: CL
[7] = Yellow Fever Mosquito, rating class
[8] = Beet Armyworm, rating class, read-out: BAW
[9] = Table ABC: Biological Results, species CL, read-out: CL
[10] = Table ABC: Biological Results, species YFM
[11] = Table ABC: Biological Results, species BAW, read-out: BAW

Row | SMILES | pest or weed control at 50 µg/cm2 [1, 4] [%] | YFM rating ([2]; Yellow Fever Mosquito) | pest or weed control at 50 µg/cm2 [3, 5] [%] | pest or weed control at 50 µg/cm2 [1, 9] [%] | YFM [2, 10] | pest or weed control at 50 µg/cm2 [3, 11] [%] | also measured
1 | Cc1cc(N)ccc1NC(=O)c1cc(NC(=O)[C@H]2[C@H](c3ccc(Cl)c(Cl)c3)C2(Cl)Cl)ccc1Cl (relative stereo) [DP1, trans-N-(4-amino-2-methylphenyl)-2-chloro-5-(2,2-dichloro-3-(3,4-dichlorophenyl)cyclopropane-1-carboxamido)benzamide] | 50 to 100 | A (80–100) | 50 to 100 | – | – | – | mortality at 50 µg/cm2 ([1]; 168 h, second instar larvae, 50 μg/cm^2 of test molecule on artificial diet, 25° C., five to seven days, average of eight wells, read-out: CL % Control (or Mortality) rating): 50 to 100%; YFM % Control (or Mortality) rating ([2]; about 1 day-old larvae, 4000 ppm master solution diluted with 90:10 water/acetone, 15 μL per well plus 220 μL larval mixture, 3 days, mortality): A (80–100); mortality at 50 µg/cm2 ([3]; 168 h, second instar larvae, 50 μg/cm^2 of test molecule on artificial diet, 25° C., five to seven days, average of eight wells, read-out: BAW % Control (or Mortality) rating): 50 to 100%
2 | CN(C(=O)C(F)(F)F)c1c(F)ccc(NC(=O)c2cc(NC(=O)[C@H]3[C@H](c4ccc(Cl)c(Cl)c4)C3(Cl)Cl)ccc2Cl)c1F [F1614, 2-Chloro-5-((1R,3R)-2,2-dichloro-3-(3,4-dichlorophenyl)cyclopropane-1-carboxamido)-N-(2,4-difluoro-3-(2,2,2-trifluoro-N-methylacetamido)phenyl)benzamide] | – | – | – | – | – | – | pest or weed control at 50 µg/cm2 [1, 6]: 50 to 100%; YFM [2, 7]: A (80–100); pest or weed control at 50 µg/cm2 [3, 8]: 50 to 100%
3 | CC(F)(F)C(=O)Nc1c(F)ccc(NC(=O)c2cc(NC(=O)[C@H]3[C@H](c4ccc(F)c(C(F)(F)F)c4)C3(Cl)Cl)ccc2Cl)c1F [F1352, 2-Chloro-5-((1R,3R)-2,2-dichloro-3-(4-fluoro-3-(trifluoromethyl)phenyl)cyclopropane-1-carboxamido)-N-(3-(2,2-difluoropropanamido)-2,4-difluorophenyl)benzamide] | – | – | – | 50 to 100 | A (80–100) | 50 to 100 | –
4 | CC(=O)Nc1c(F)ccc(N(C)C(=O)c2cc(NC(=O)[C@H]3[C@H](c4ccc(F)c(C(F)(F)F)c4)C3(Cl)Cl)ccc2Cl)c1F [F1799, N-(3-Acetamido-2,4-difluorophenyl)-2-chloro-5-((1R,3R)-2,2-dichloro-3-(4-fluoro-3-(trifluoromethyl)phenyl)cyclopropane-1-carboxamido)-N-methylbenzamide] | 50 to 100 | A (80–100) | 50 to 100 | – | – | – | –
5 | COc1c(F)cc(NC(=O)[C@H]2[C@H](c3ccc(F)c(Cl)c3)C2(Cl)Cl)cc1C(=O)Nc1ccc(NC(C)=O)cc1 (relative stereo) [F1220, trans-N-(4-Acetamidophenyl)-5-(2,2-dichloro-3-(3-chloro-4-fluorophenyl)-cyclopropane-1-carboxamido)-3-fluoro-2-methoxybenzamide] | – | – | – | 50 to 100 | A (80–100) | 50 to 100 | –
6 | Cc1c(N)ccc(Br)c1NC(=O)c1cc(NC(=O)[C@H]2[C@H](c3ccc(F)c(C(F)(F)F)c3)C2(Cl)Cl)ccc1Cl [F1684, N-(3-Amino-6-bromo-2-methylphenyl)-2-chloro-5-((1R,3R)-2,2-dichloro-3-(4-fluoro-3-(trifluoromethyl)phenyl)cyclopropane-1-carboxamido)benzamide] | – | – | – | – | – | – | pest or weed control at 50 µg/cm2 [1, 6]: 50 to 100%; YFM [2, 7]: B (More than 0 – Less than 80); pest or weed control at 50 µg/cm2 [3, 8]: 50 to 100%
7 | Cc1cc(NC(=O)[C@H]2[C@H](c3ccc(F)c(Cl)c3)C2(Cl)Cl)cc(C(=O)NCC(F)(F)F)c1Cl (relative stereo) [F2038, trans-2-Chloro-5-(2,2-dichloro-3-(3-chloro-4-fluorophenyl)cyclopropane-1-carboxamido)-3-methyl-N-(2,2,2-trifluoroethyl)benzamide] | 50 to 100 | A (80–100) | 50 to 100 | – | – | – | –
8 | O=C(Nc1ccc(F)cc1F)c1cc(NC(=O)[C@H]2[C@H](c3cc(Cl)cc(C(F)(F)F)c3)C2(Cl)Cl)ccc1Cl (relative stereo) [F1118, trans-2-Chloro-5-(2,2-dichloro-3-(3-chloro-5-(trifluoromethyl)phenyl)cyclopropane-1-carboxamido)-N-(2,4-difluorophenyl)benzamide] | – | – | – | 50 to 100 | A (80–100) | 50 to 100 | –
